# Test system: breast cancer cell line MX-1
# Experiment: MX-1 cell line proliferation assay, Method A
# Type: cell-based
# Conditions: Homo sapiens, MX1; MX-1 cells, 96-well, 72 hours, Cell Titer Glo; read-out: Cellular proliferation: EC50 Method A
# Experimental: The impact of compounds of the Examples on cancer cell proliferation was determined using the breast cancer cell line MX-1 (ATCC) in a 3-day proliferation assay and the data are reported in Table 1.
# MX-1 cells were maintained in RPMI 1640 medium (Sigma) supplemented with 10% FBS at 37° C. and an atmosphere of 5% CO2. For compound testing, MX-1 cells were plated in 96-well black bottom plates at a density of 5000 cells/well in 90 μL of culture media and incubated at 370 overnight to allow cell adhesion and spreading. Compound dilution series were prepared in DMSO via a 3-fold serial dilution from 3 mM to 0.1 μM. The DMSO dilution series were then diluted 1:100 in phosphate buffered saline, and 10 μL of the resulted solution were added to the appropriate wells of the MX-1 cell plate. The final compound concentrations in the wells were 3, 1, 0.3, 0.1, 0.03, 0.01, 0.003, 0.001, 0.0003 and 0.0001 μM.
# Luminescence readings from the Cell Titer Glo assay were normalized to the DMSO treated cells and analyzed using the GraphPad Prism software with sigmoidal curve fitting to obtain ECs50s. The minimum significant ratio (MSR) was determined to evaluate assay reproducibility (Eastwood et al., (2006) J Biomol Screen, 11: 253-261).
row,SMILES,EC50 [µM]
1,Cn1cc(-c2cc(S(C)(=O)=O)ccc2Oc2cccc(NS(=O)(=O)c3ccc(F)cc3Cl)c2)c2cc[nH]c2c1=O [Example 58],0.152
2,"Cn1cc(-c2cc(S(C)(=O)=O)ccc2Oc2cccc(NCc3cccc(C#N)c3)c2)c2cc[nH]c2c1=O [Example 60, 3-[({3-[2-(6-methyl-7-oxo-6,7-dihydro-1H-pyrrolo[2,3-c]pyridin-4-yl)-4-(methylsulfonyl)phenoxy]phenyl}amino)methyl]benzonitrile]",0.0641
3,"Cn1cc(-c2cc(S(C)(=O)=O)ccc2Oc2cccc(NCc3ccc(C#N)cc3)c2)c2cc[nH]c2c1=O [Example 61, 4-[({3-[2-(6-methyl-7-oxo-6,7-dihydro-1H-pyrrolo[2,3-c]pyridin-4-yl)-4-(methylsulfonyl)phenoxy]phenyl}amino)methyl]benzonitrile]",0.043
4,"Cn1cc(-c2cc(S(C)(=O)=O)ccc2Oc2cccc(NCc3ccc(F)cc3)c2)c2cc[nH]c2c1=O [Example 62, 4-[2-{3-[(4-fluorobenzyl)amino]phenoxy}-5-(methylsulfonyl)phenyl]-6-methyl-1,6-dihydro-7H-pyrrolo[2,3-c]pyridin-7-one]",0.0511
5,"COCCNc1cccc(Oc2ccc(S(C)(=O)=O)cc2-c2cn(C)c(=O)c3[nH]ccc23)c1 [Example 64, 4-[2-{3-[(2-methoxyethyl)amino]phenoxy}-5-(methylsulfonyl)phenyl]-6-methyl-1,6-dihydro-7H-pyrrolo[2,3-c]pyridin-7-one]",0.0526
6,"Cn1cc(-c2cc(S(C)(=O)=O)ccc2Oc2cccc(NCC3CCCO3)c2)c2cc[nH]c2c1=O (stereo not shown) [Example 65, 6-methyl-4-[5-(methylsulfonyl)-2-{3-[(tetrahydrofuran-2-ylmethyl)amino]phenoxy}phenyl]-1,6-dihydro-7H-pyrrolo[2,3-c]pyridin-7-one]",0.04
7,"COc1cccc(CNc2cccc(Oc3ccc(S(C)(=O)=O)cc3-c3cn(C)c(=O)c4[nH]ccc34)c2)c1 [Example 66, 4-[2-{3-[(3-methoxybenzyl)amino]phenoxy}-5-(methylsulfonyl)phenyl]-6-methyl-1,6-dihydro-7H-pyrrolo[2,3-c]pyridin-7-one]",0.0547
8,"Cn1cc(-c2cc(S(C)(=O)=O)ccc2Oc2cccc(NCc3ccccc3F)c2)c2cc[nH]c2c1=O [Example 67, 4-[2-{3-[(2-fluorobenzyl)amino]phenoxy}-5-(methylsulfonyl)phenyl]-6-methyl-1,6-dihydro-7H-pyrrolo[2,3-c]pyridin-7-one]",0.0506
9,"Cn1cc(-c2cc(S(C)(=O)=O)ccc2Oc2cccc(NCc3cccc(OC(F)(F)F)c3)c2)c2cc[nH]c2c1=O [Example 69, 6-methyl-4-[5-(methylsulfonyl)-2-(3-{[3-(trifluoromethoxy)benzyl]amino}phenoxy)phenyl]-1,6-dihydro-7H-pyrrolo[2,3-c]pyridin-7-one]",0.0933
10,"Cn1cc(-c2cc(S(C)(=O)=O)ccc2Oc2cccc(NCc3cc(F)cc(F)c3)c2)c2cc[nH]c2c1=O [Example 73, 4-[2-{3-[(3,5-difluorobenzyl)amino]phenoxy}-5-(methylsulfonyl)phenyl]-6-methyl-1,6-dihydro-7H-pyrrolo[2,3-c]pyridin-7-one]",0.0624
11,"CN(C)CCCOc1ccc(CNc2cccc(Oc3ccc(S(C)(=O)=O)cc3-c3cn(C)c(=O)c4[nH]ccc34)c2)cc1 [Example 74, 4-{2-[3-({4-[3-(dimethylamino)propoxy]benzyl}amino)phenoxy]-5-(methylsulfonyl)phenyl}-6-methyl-1,6-dihydro-7H-pyrrolo[2,3-c]pyridin-7-one]",0.0451
12,"CN(C)c1cccc(CNc2cccc(Oc3ccc(S(C)(=O)=O)cc3-c3cn(C)c(=O)c4[nH]ccc34)c2)c1 [Example 75, 4-[2-(3-{[3-(dimethylamino)benzyl]amino}phenoxy)-5-(methylsulfonyl)phenyl]-6-methyl-1,6-dihydro-7H-pyrrolo[2,3-c]pyridin-7-one]",0.112
13,"Cn1cc(-c2cc(S(C)(=O)=O)ccc2Oc2cccc(NCc3ccc4c(c3)OCCO4)c2)c2cc[nH]c2c1=O [Example 76, 4-[2-{3-[(2,3-dihydro-1,4-benzodioxin-6-ylmethyl)amino]phenoxy}-5-(methylsulfonyl)phenyl]-6-methyl-1,6-dihydro-7H-pyrrolo[2,3-c]pyridin-7-one]",0.0499
14,"Cn1cc(-c2cc(S(C)(=O)=O)ccc2Oc2cccc(NCC3CCOC3)c2)c2cc[nH]c2c1=O (stereo not shown) [Example 77, 6-methyl-4-[5-(methylsulfonyl)-2-{3-[(tetrahydrofuran-3-ylmethyl)amino]phenoxy}phenyl]-1,6-dihydro-7H-pyrrolo[2,3-c]pyridin-7-one]",0.0692
15,"Cn1cc(-c2cc(S(C)(=O)=O)ccc2Oc2cccc(NCC3CC3)c2)c2cc[nH]c2c1=O [Example 80, 4-[2-{3-[(cyclopropylmethyl)amino]phenoxy}-5-(methylsulfonyl)phenyl]-6-methyl-1,6-dihydro-7H-pyrrolo[2,3-c]pyridin-7-one]",0.128
16,"CCS(=O)(=O)c1ccc(Oc2ccc(Cl)cc2C#CCN2CCOCC2)c(-c2cn(C)c(=O)c3[nH]ccc23)c1 [Example 82, 4-[2-{4-chloro-2-[3-(morpholin-4-yl)prop-1-yn-1-yl]phenoxy}-5-(ethylsulfonyl)phenyl]-6-methyl-1,6-dihydro-7H-pyrrolo[2,3-c]pyridin-7-one]",0.221
17,"CCS(=O)(=O)c1ccc(Oc2ccc(Cl)cc2CCCN2CCOCC2)c(-c2cn(C)c(=O)c3[nH]ccc23)c1 [Example 83, 4-[2-{4-chloro-2-[3-(morpholin-4-yl)propyl]phenoxy}-5-(ethylsulfonyl)phenyl]-6-methyl-1,6-dihydro-7H-pyrrolo[2,3-c]pyridin-7-one]",0.0899
18,"Cn1cc(-c2cc(S(C)(=O)=O)ccc2NC2CCN(S(=O)(=O)c3ccccc3)CC2)c2cc[nH]c2c1=O [Example 84, 6-methyl-4-[5-(methylsulfonyl)-2-{[1-(phenylsulfonyl)piperidin-4-yl]amino}phenyl]-1,6-dihydro-7H-pyrrolo[2,3-c]pyridin-7-one]",0.0878
19,"CN(C)CC(=O)N1CCC(Nc2ccc(S(C)(=O)=O)cc2-c2cn(C)c(=O)c3[nH]ccc23)CC1 [Example 85, 4-[2-({1-[(dimethylamino)acetyl]piperidin-4-yl}amino)-5-(methylsulfonyl)phenyl]-6-methyl-1,6-dihydro-7H-pyrrolo[2,3-c]pyridin-7-one]",> 1
20,"CC(=O)Nc1ccc(CN2CCC(Nc3ccc(S(C)(=O)=O)cc3-c3cn(C)c(=O)c4[nH]ccc34)CC2)cc1 [Example 87, N-{4-[(4-{[2-(6-methyl-7-oxo-6,7-dihydro-1H-pyrrolo[2,3-c]pyridin-4-yl)-4-(methylsulfonyl)phenyl]amino}piperidin-1-yl)methyl]phenyl}acetamide]",0.325
21,"CN1CCN(CC(=O)N2CCC(Nc3ccc(S(C)(=O)=O)cc3-c3cn(C)c(=O)c4[nH]ccc34)CC2)CC1 [Example 96, 6-methyl-4-[2-({1-[(4-methylpiperazin-1-yl)acetyl]piperidin-4-yl}amino)-5-(methylsulfonyl)phenyl]-1,6-dihydro-7H-pyrrolo[2,3-c]pyridin-7-one]",> 1
22,"Cn1cc(-c2cc(S(C)(=O)=O)ccc2NC2CCN(S(=O)(=O)Cc3ccccc3)CC2)c2cc[nH]c2c1=O [Example 101, 4-[2-{[1-(benzylsulfonyl)piperidin-4-yl]amino}-5-(methylsulfonyl)phenyl]-6-methyl-1,6-dihydro-7H-pyrrolo[2,3-c]pyridin-7-one]",0.0729

# From US10131657B2, “Bromodomain inhibitors” (AbbVie Inc., priority 2013, dated 2018)
